From patent publication US12037344B2, “NLRP3 modulators” (INNATE TUMOR IMMUNITY, INC., priority 2018, dated 2024)
Read-outs that look alike come from different tables or passages of the source.

What was measured:
THP-1 cells = experiment: Measurement of IL-1β production, hTRF protocol (second alternative procedure), THP-1 cells; assay type: cell-based, human; settings: read-out: NLRP3 hILIB EC50
Outline: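 Compounds, dilution series starting at a final 10 μM, were incubated 2 hours at 37° C with PMA-differentiated THP-1 cells (50 ng/ml overnight; 50,000 cells/well, 2% FBS RPMI). Released IL-1β quantified in supernatant by hTRF kit with 1:40 antibody dilution, 4° C overnight, 665/615 nm ratio.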

TLR7 = target: T1, TLR7 (Homo sapiens, UniProt Q9NYK1); experiment: In vitro human TLR7 binding reporter assay (HEK-Blue, NF-kB/AP1-inducible SEAP); assay type: cell-based; settings: read-out: TLR7 Agonist EC50
T1 construct: human HEK-Blue cells co-expressing a TLR7 or TLR8 gene
T1 sequence (Q9NYK1 27-1049): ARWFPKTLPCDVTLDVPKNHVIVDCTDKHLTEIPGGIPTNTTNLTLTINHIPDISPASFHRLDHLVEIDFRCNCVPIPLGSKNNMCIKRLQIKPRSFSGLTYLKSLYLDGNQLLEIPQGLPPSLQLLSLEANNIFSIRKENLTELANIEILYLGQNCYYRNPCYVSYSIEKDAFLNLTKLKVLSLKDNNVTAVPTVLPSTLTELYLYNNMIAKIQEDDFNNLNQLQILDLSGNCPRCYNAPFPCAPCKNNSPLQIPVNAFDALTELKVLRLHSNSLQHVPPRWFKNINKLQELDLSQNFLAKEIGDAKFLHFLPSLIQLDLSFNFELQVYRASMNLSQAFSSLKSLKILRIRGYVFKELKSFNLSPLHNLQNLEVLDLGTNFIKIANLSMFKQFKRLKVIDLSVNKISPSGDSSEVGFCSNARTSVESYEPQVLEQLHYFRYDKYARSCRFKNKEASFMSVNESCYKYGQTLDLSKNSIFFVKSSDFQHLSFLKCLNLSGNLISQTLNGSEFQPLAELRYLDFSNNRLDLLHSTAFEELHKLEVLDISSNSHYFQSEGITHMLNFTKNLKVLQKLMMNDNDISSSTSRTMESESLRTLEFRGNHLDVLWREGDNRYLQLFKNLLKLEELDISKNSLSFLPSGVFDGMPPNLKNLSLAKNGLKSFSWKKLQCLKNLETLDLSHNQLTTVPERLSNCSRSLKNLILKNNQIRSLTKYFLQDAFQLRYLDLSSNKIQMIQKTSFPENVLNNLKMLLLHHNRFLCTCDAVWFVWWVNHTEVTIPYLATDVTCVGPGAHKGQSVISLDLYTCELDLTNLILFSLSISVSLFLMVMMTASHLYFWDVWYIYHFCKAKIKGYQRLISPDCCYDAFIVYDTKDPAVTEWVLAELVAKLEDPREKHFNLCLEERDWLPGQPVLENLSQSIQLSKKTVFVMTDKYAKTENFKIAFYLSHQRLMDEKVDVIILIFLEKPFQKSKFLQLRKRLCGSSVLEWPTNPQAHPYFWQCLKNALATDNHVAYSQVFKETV
Outline: (§1)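 Cells are seeded and grown for 24 h. Compounds or DMSO are then added and incubated 18 h at 37 °C. Quanti-Blue is added, and SEAP is read after thirty minutes. EC50 values are normalized, with RLU from 50 μM reference standard setting 100% Ymax.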

TLR8 = target: T2, TLR8 (Homo sapiens, UniProt Q9NR97); experiment: In vitro human TLR8 binding reporter assay (HEK-Blue, NF-kB/AP1-inducible SEAP); assay type: cell-based; settings: read-out: TLR8 Agonist EC50
T2 construct: human HEK-Blue cells co-expressing a TLR7 or TLR8 gene
T2 sequence (Q9NR97 27-1041): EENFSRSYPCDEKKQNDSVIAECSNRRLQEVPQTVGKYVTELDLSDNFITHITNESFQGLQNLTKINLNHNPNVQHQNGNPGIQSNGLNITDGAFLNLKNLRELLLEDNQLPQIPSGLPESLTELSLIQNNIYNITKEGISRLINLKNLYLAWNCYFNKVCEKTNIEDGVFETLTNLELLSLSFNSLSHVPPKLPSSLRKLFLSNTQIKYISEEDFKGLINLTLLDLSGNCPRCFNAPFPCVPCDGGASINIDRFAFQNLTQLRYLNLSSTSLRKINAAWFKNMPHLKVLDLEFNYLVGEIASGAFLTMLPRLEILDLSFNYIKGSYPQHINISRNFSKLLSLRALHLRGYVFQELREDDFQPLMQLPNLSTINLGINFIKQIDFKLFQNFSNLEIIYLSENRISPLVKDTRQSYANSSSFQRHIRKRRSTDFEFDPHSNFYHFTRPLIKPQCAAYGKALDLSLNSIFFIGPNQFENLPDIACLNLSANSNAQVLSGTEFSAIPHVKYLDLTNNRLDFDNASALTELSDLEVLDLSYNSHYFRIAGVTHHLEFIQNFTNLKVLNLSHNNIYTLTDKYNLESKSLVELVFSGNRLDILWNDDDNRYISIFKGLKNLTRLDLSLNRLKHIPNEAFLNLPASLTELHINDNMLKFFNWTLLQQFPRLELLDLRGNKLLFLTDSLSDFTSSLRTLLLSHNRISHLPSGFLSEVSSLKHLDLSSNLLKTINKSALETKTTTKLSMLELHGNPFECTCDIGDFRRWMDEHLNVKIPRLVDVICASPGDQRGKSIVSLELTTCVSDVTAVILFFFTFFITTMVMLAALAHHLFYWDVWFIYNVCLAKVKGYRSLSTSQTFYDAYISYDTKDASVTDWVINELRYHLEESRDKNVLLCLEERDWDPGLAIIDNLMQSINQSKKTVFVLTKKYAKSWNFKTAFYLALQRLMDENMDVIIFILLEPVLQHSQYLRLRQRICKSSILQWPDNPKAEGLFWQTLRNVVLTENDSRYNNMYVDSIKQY
Outline: as §1

[1] = Homo sapiens, THP-1, IL-1β production, human
[2] = Homo sapiens, THP-1, IL-1β production, human cells

EC50 (THP-1 cells; [1]) [µM] | EC50 (TLR7; activity range class) [µM] | EC50 (TLR8; activity range class) [µM] | EC50 (THP-1 cells; [2]) [µM] | EC50 (TLR7; activity range) [µM] | EC50 (TLR8; activity range) [µM] | EC50 (THP-1 cells; IL-1β production, human) [µM] | Structure (SMILES)
0.37 | > 100 | 20 to 100 |  |  |  |  | Cc1nc(C(=O)NCCn2cc3c(n2)c(N)nc2cc(-c4cc[nH]n4)ccc23)c(C)o1 [Example 68]
 |  |  | 12.9 | > 100 | > 100 |  | Nc1nc2cc(-c3ccn[nH]3)ccc2c2nn(CCCNS(=O)(=O)c3cccnc3)cc12 [Example 595]
0.83 | > 100 | > 100 |  |  |  |  | COC(C)(C)Cn1cc2c(N)nc3cc(-c4cc[nH]n4)ccc3c2n1 [Example 322]
0.08 | > 100 | > 100 |  |  |  |  | N#CCCCn1cc2c(N)nc3cc(-c4cc[nH]n4)ccc3c2n1 [Example 392]
1.98 | > 100 | > 100 |  |  |  |  | CS(=O)(=O)CCn1cc2c(n1)c(N)nc1cc(-c3cc[nH]n3)ccc12 [Example 170]
 |  |  | 7.28 | > 100 | > 100 |  | CC(CC(=O)NC1CCC1)n1cc2c(N)nc3cc(-c4cc[nH]n4)ccc3c2n1 (stereo not drawn) [Example 622]
 |  |  | 2.1 | > 100 | > 100 |  | CC(C(=O)NCCO)n1cc2c(N)nc3cc(-c4ccn[nH]4)ccc3c2n1 (stereo not drawn) [Example 568]
0.63 | > 100 | > 100 |  |  |  |  | CS(=O)(=O)CCCn1cc2c(N)nc3cc(-c4cc[nH]n4)ccc3c2n1 [Example 211]
0.43 | > 100 | > 100 |  |  |  |  | COCC(O)Cn1cc2c(N)nc3cc(-c4cc[nH]n4)ccc3c2n1 (stereo not drawn) [Example 307]
 |  |  | 0.38 | > 100 | > 100 |  | COc1nc(C(=O)NCCc2cc3c(N)nc4cc(-c5ccn[nH]5)ccc4c3[nH]2)cs1 [Example 447]
0.62 | > 100 | > 100 |  |  |  |  | Cc1cnc(C(=O)NCCn2cc3c(n2)c(N)nc2cc(-c4cc[nH]n4)ccc23)cn1 [Example 52]
0.63 | > 100 | > 100 |  |  |  |  | Nc1nc2cc(-c3cc[nH]n3)ccc2c2cn(CCNC(=O)c3cocn3)nc12 [Example 44]
 |  |  | 2.75 | > 100 | > 100 |  | Nc1nc2cc(-c3cc[nH]n3)ccc2c2c1cnn2CCN1CCOCC1 [Example 436]
2.33 | > 100 | > 100 |  |  |  |  | CNCCn1cc2c(N)nc3cc(-c4ccn[nH]4)ccc3c2n1 [Example 277]
 |  |  | 5.82 | > 100 | > 100 |  | Nc1nc2cc(-c3cc[nH]n3)ccc2c2nn(CCC(=O)N3CC(O)C3)cc12 [Example 512]
0.3 | > 100 | 1 to 20 |  |  |  |  | Nc1nc2cc(-c3cc[nH]n3)ccc2c2cn(CCNC(=O)c3ccc(OCc4ccccc4)cn3)nc12 [Example 58]
9.76 | > 100 | > 100 |  |  |  |  | Nc1nc2cc(-c3cc[nH]n3)ccc2c2cn(CCCNC(=O)c3ccccn3)nc12 [Example 124]
0.42 | > 100 | > 100 |  |  |  |  | CC(Cn1cc2c(N)nc3cc(-c4ccn[nH]4)ccc3c2n1)NC(=O)c1cc(F)ccn1 (stereo not drawn) [Example 295]
1.81 | 20 to 100 | > 100 |  |  |  |  | COCCOCCn1cc2c(n1)c(N)nc1cc(-n3cccn3)ccc12 [Example 15]
0.89 | > 100 | > 100 |  |  |  |  | Cc1cccc(OCCCn2cc3c(n2)c(N)nc2cc(-c4cc[nH]n4)ccc23)c1 [Example 8]
 | > 100 | > 100 |  |  |  | 0.62 | Nc1nc2cc(-c3cc[nH]n3)ccc2c2nn(C3CCCC3O)cc12 (single isomer, unassigned) [Example 340]
6.57 | > 100 | > 100 |  |  |  |  | Nc1nc2cc(-c3cc[nH]n3)ccc2c2nn(CC3(O)CCOCC3)cc12 [Example 320]
0.46 | 20 to 100 | > 100 |  |  |  |  | Cn1ccnc1C(=O)NCCn1cc2c(n1)c(N)nc1cc(-c3cc[nH]n3)ccc12 [Example 99]
 |  |  | 1.4 | > 100 | > 100 |  | CN(C)C(=O)CCn1cc2c(N)nc3cc(-c4cc[nH]n4)ccc3c2n1 [Example 506]
1.17 | > 100 | 20 to 100 |  |  |  |  | Nc1nc2cc(-c3cc[nH]n3)ccc2c2cn(CCNC(=O)c3ncc(C(F)(F)F)cc3F)nc12 [Example 91]
0.3 | > 100 | > 100 |  |  |  |  | Nc1nc2cc(-n3cccn3)ccc2c2cn(CCNC(=O)c3ccccn3)nc12 [Example 133, N-{2-[4-amino-7-(1H-pyrazol-1-yl)-2H-pyrazolo[3,4-c]quinolin-2-yl]ethyl}pyridine-2-carboxamide]
4.5 | > 100 | > 100 |  |  |  |  | COC1CN(CCn2cc3c(N)nc4cc(-c5ccn[nH]5)ccc4c3n2)C1 [Example 268]
1.44 | > 100 | > 100 |  |  |  |  | Nc1nc2cc(-c3cc[nH]n3)ccc2c2c1cnn2CCOCCO [Example 233]
 |  |  | 0.96 | > 100 | > 100 |  | CNC(=O)CCn1cc2c(n1)c(N)nc1cc(-c3cc[nH]n3)ccc12 [Example 535]
